Format in all cases: in vivo, rat
The test system of series [1] is morphine-tolerant rats (CSA model). The experiment in a line: Apnea hypopnea index and ventilation during sleep in rats receiving chronic morphine (CSA model). The following applies: 10 mg/kg PO, FIG. 15. The protocol: Central sleep apnea (CSA) and hypopnea are especially prevalent in people on chronic opioid therapy. Accordingly, a novel rodent model of chronic opioid-induced sleep disordered breathing that mimics many features of the condition in people was developed.
Morphine was administered chronically to rats in their drinking water at a dose and duration that elicited morphine tolerance. Morphine sulfate was added to the drinking water of individually housed rats beginning at 0.1 mg/ml morphine and increasing the concentration in increments so that a final concentration of 0.6 mg/ml was achieved within 2 weeks of beginning morphine exposure. During the first three weeks after starting morphine administration, rats were acclimated to whole body plethysmography chambers.
Respiratory rate (fR), tidal volume (VT), minute volume (VE), and CSA and hypopnea frequency and length (i.e., duration of each apnea) were measured continuously while animals were unrestrained in whole-body plethysmography chambers. Animals breathed room air for the duration of the study, except where indicated for the hyperoxia validation study. […]
A respiratory waveform was generated from the expansion and contraction of the air that was exchanged between the animal and the chamber. […] The airflow signal was amplified and continuously recorded using PowerLab and LabChart 7.0. […]

The subject of another series is rats. The experiment in a line: Sleep quantity, architecture and quality by EEG/EMG telemetry. The note with it: 10 mg/kg PO. The protocol: All surgical and plethysmographic studies were approved by the IACUC committee of Galleon Pharmaceuticals. The study used rats implanted with dual biopotential electrodes that permitted continuous and simultaneous telemetric recordings of electroencephalogram (EEG) and electromyogram (EMG) waveforms. Three treatment conditions were assessed for their effects on sleep quantity, architecture, and quality: baseline (drug-naïve), (31a) (10 mg/kg PO) and vehicle (equal volume PO). Baseline and (31a) treatment study days were randomized. However, vehicle alone was assessed after each rat had completed drug nave and compound (31a) evaluations.
Standard aseptic technique was used for all surgical procedures. […]
Rats with implanted telemeters were allowed to remain in their home cages during data collection. […] EEG and EMG waveforms were recorded between 8 am and 3 pm each study day. […] For each rat, the three telemetry signals (EEG, EMG, and temperature) were routed from the receiver to the PowerLab and recorded using LabChart. […]
The principal aspects of these analyses were to quantify the magnitude of the EMG signal (i.e., the animals activity level) and the relative densities of EEG delta waves (0.5 to 4 Hz; predominant in NREM sleep) and EEG theta waves (6 to 10 Hz; predominant in REM sleep) during each 4-second epoch. […]

Series [2] relates to rats with evoked obstructions. Nature of the series: Evoked obstructive apnea model. Here is the method:
Two rodent models of obstructive apnea were used: one that modeled spontaneous obstructions (spontaneous obstructive apnea model) which become progressively worse over time, and another (evoked obstructive apnea model) where the investigator retained control over the variables that define OSA severity, such as apnea frequency (f OA) and apnea duration (OA t).
All animal experiments were performed according to protocols approved by the Institutional Animal Care and Use Committee (IACUC) at Galleon Pharmaceuticals, Inc. All experimental procedures were performed under general anesthesia. All experiments were non-survival procedures and animals were euthanized at the conclusion of the experiment prior to the animal recovering from anesthesia. Two rodent models of obstructive apnea were used, one that modeled spontaneous obstructions that become progressively worse over time (Spontaneous Obstructive Apnea Model), and another where the investigator retained control over the parameters that defined OSA severity, such as f OA, and OA t, and by controlling these directly also controlling of the magnitude of oxy-hemoglobin desaturation (Evoked Obstructive Apnea Model).

SMILES strings stand for the structures. “Also recorded” adds a separate entry of the source. Structures can show the parent of a compound that is named as a salt.

Take `CCCNc1nc(NC)nc2c(NCC(C)(C)O)nc(NC)nc12` [Compound 31a, 1-(2,6-Bis-methylamino-8-propylamino-pyrimido[5,4-d]pyrimidin-4-ylamino)-2-methyl-propan-2-ol Hydrochloride]: in series [1], the apnea-hypopnea index entry is “reduces” and the minute volume result is “without significantly increasing”. In the series on rats, the “effects on sleep quantity, architecture, or quality” value is listed as “not associated with any statistically significant effects”. The “effects on sleep architecture” value in the series with rats (compared to baseline (drug-naive), FIG. 24, Hydrochloride, 10 mg/kg) is recorded as “No significant differences; also recorded: does not produce effects”. Also, the “airway (genioglossus, or GG) responses to evoked obstructions” value in series [2] (rats, IV infusion MD 0.008 mg/kg/min 15 min then 0.002 mg/kg/min 45 min, HD 0.024 then 0.006 mg/kg/min, FIG. 21A) is reported as “increases”. In addition, in series [2] (same rats and infusions as FIG. 21A, FIG. 21B), the “diaphragm (DIA) responses to evoked obstructions” value was “insignificant increases”.

Values taken from patent publication US10294228B2, “Breathing control modulating compounds, and methods of making and using same” (NEURAD LTD., priority 2015, dated 2019).
